Measured values taken from patent US5773438A, “Synthetic matrix metalloprotease inhibitors and use thereof” (Glycomed Incorporated, priority 1994, dated 1998).
Entries after “also recorded” stand apart in the source; their conditions may differ.

Tests used:
[1] = biological target: T1, human skin fibroblast collagenase (Homo sapiens, UniProt P03956); assay: inhibition of collagenase, synthetic thiol ester substrate, Ki (Table 1); type: biochemical
T1 construct: endogenous in cells; host or cells: human skin fibroblasts
T1 sequence (P03956 100-469): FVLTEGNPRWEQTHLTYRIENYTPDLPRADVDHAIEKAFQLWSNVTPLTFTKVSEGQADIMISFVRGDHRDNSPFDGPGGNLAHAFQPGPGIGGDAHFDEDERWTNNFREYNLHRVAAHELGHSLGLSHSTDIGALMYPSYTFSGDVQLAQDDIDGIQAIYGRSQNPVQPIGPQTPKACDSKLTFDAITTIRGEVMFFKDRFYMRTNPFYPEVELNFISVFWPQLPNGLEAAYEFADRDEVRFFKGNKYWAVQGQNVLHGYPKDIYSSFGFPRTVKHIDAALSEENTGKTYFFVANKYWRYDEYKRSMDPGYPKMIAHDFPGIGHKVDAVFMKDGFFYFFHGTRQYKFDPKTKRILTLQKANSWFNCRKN
Description: Specifically, assay of inhibition activity can be conducted as follows. Inhibitors may be assayed against crude or purified human skin fibroblast collagenase, or purified human gingival fibroblast collagenase using the synthetic thiol ester substrate at pH 6.5 exactly as described by Kortylewicz & Galardy, J Med Chem (1990) 33:263-273, at a collagenase concentration of 1-2 nM. The candidate inhibitors are tested for their ability to inhibit crude collagenase and gelatinase from human skin fibroblasts, crude collagenase and gelatinase from purulent human neutrophils in this assay.

[2] = biological target: T2, Natural human 72kD gelatinase (Homo sapiens, UniProt P08253); assay: inhibition of 72kD gelatinase (Table 2); type: biochemical; conditions: read-out: 72kD G inhibitory activity
T2 sequence (P08253 110-660): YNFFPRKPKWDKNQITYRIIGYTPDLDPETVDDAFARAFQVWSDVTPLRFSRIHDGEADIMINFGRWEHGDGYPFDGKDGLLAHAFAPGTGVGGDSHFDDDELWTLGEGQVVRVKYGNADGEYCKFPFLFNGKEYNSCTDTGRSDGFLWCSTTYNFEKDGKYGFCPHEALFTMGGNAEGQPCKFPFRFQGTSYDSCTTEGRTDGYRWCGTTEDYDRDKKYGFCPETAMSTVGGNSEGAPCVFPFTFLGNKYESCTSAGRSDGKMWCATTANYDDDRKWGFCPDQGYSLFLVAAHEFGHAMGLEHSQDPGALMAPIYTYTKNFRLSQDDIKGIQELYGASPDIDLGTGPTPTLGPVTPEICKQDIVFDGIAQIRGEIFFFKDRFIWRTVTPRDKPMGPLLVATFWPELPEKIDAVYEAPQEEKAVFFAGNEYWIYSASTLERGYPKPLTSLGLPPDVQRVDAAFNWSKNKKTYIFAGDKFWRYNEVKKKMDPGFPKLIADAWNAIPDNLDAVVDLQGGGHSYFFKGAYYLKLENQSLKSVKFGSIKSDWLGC
Description: (§6) Specifically, assay of inhibition activity can be conducted as follows. […] Assays for inhibition of human stromelysin are conducted as described by Teahan, J., et al., Biochemistry (1989) 20:8497-8501.
(§7) Assay of inhibition activity can be conducted using a fluorogenic substrate developed by Knight et al., FEBS Letters (1992) 296:263. This method uses a fluorometer to determine the rate of substrate hydrolysis in a 96 well plate format. Reaction rates are determined at several substrate concentrations, and multiple inhibitor levels. The data are analyzed by Lineweaver-Burk, Dixon and Henderson plot analyses (Enzyme Kinetics (1975) Irwin Segal (John Wiley & Sons, Inc., publishers), and as described by Henderson, Biochem J. (1972) 127:321). The substrate levels range from 10-30μM. […] Inhibitors may be assayed against purified 72 kD gelatinase, 92 kD gelatinase, neutrophil collagenase, stromelysin or other proteases as appropriate. The enzymes are activated at 37° C. with APMA (4-aminophenylmercuric acetate), and the assays are carried out at room temperature.

[3] = biological target: 92kD gelatinase (Homo sapiens, UniProt P14780); assay: inhibition of 92kD gelatinase (Table 2); type: biochemical; conditions: read-out: 92kD G inhibitory activity
Chain of 92kD gelatinase (P14780 107-707 limits assumed): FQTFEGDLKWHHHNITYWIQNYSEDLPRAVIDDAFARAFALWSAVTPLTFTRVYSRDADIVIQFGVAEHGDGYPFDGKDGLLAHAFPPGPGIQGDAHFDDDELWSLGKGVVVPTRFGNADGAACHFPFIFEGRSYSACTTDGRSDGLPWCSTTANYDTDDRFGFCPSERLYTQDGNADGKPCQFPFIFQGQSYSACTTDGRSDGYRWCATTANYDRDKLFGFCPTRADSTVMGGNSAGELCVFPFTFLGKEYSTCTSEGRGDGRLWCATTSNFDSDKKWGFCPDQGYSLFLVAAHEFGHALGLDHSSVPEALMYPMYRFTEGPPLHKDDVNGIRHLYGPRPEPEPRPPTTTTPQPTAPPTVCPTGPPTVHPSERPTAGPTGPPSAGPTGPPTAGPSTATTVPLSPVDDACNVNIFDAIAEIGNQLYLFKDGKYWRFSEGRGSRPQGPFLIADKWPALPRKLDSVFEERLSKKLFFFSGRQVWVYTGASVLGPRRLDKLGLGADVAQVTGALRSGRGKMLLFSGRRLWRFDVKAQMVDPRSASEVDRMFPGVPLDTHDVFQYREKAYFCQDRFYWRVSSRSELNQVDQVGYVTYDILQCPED

[4] = biological target: Stromelysin (Homo sapiens, UniProt P08254); assay: inhibition of stromelysin (Table 2); type: biochemical; conditions: read-out: Strom inhibitory activity
Chain of Stromelysin (P08254 100-477): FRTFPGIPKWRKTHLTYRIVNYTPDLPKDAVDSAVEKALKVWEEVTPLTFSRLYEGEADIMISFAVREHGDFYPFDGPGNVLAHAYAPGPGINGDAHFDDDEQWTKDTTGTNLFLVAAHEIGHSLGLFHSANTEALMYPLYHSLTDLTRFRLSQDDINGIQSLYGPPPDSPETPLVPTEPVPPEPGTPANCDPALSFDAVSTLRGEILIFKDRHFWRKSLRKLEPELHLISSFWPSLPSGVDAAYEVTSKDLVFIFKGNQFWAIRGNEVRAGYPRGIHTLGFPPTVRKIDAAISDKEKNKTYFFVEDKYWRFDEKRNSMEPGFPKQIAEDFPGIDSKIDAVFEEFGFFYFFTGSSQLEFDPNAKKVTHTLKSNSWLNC
Description: as §6, §7

[5] = biological target: Recombinant neutrophil collagenase (Homo sapiens, UniProt P22894); assay: inhibition of recombinant neutrophil collagenase (Table 2); type: biochemical; conditions: read-out: NC inhibitory activity
Chain of Recombinant neutrophil collagenase (P22894 101-467): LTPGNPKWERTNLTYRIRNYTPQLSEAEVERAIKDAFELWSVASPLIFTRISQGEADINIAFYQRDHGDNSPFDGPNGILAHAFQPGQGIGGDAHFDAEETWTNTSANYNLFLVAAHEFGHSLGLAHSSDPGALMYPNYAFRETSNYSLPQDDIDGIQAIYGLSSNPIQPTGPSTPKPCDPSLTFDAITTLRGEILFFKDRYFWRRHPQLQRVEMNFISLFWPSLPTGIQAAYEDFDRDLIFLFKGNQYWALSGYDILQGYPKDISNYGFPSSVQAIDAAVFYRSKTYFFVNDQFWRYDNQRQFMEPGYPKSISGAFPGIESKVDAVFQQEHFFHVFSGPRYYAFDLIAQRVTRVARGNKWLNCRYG
Description: as §6, §7

[6] = biological target: T3, Human gingival fibrblast collagenase (Homo sapiens, UniProt P03956); assay: inhibition of human gingival fibroblast collagenase (Table 2); type: biochemical; conditions: read-out: HGFC inhibitory activity
T3 construct: endogenous in cells; host or cells: human gingival fibroblasts
T3 sequence (P03956 100-469): T1 sequence (P03956 100-469)
Description: as §6, §7

[7] = tested on: protease activity of chronic wound fluid; assay: Azocoll assay of protease activity in chronic wound fluid; type: biochemical, human
Description: (§1) Fluids were collected from 3 types of human wounds termed closed spontaneously healing wounds, open slowly healing wounds, and open chronic wounds. In the first category were fluids collected from the chest wall of women following mastectomy surgery. Fluids from non-infected wounds that were left open for valid surgical reasons were considered open slowly healing wounds. An occlusive dressing was placed over the wound bed, and fluids were collected after 2-6 hours of occlusion. Finally, fluids were also collected from chronic open wounds by covering the wounds with occlusive dressings. Wounds were considered to be chronic if they were not clinically infected and had been open and not healing for more than 4 weeks.
(§2) The various wound fluids were assayed for matrix metalloproteinase activity using the Azocoll assay essentially as described by Chavira, et al., Analytic Biochemistry (1984), 136:446.
(§3) The fluids were centrifuged, and the supernatants filtered using a 0.45μ sterile Gelman filter. The filtrates were stored frozen at -80° C. until tested for protease activity.
(§4) The effects of four inhibitors on the protease activity present in wound fluids were determined. The inhibitors were: compounds
Stock solutions of the four inhibitors were all prepared at a concentration of 800 μg/ml. Due to different solubility properties of the inhibitors, different techniques were utilized. […] S1209 was dissolved in 1% DMSO then dissolved in 10 mM citrate, pH 5.5, containing 0.05% methyl cellulose. 39A was dissolved in propylene glycol (to give a final concentration of 2.4%) then dissolved in 1 mM CaCl2, 50 mM Tris-Cl, pH 7.8. 21A was dissolved in propylene glycol (2.4%) methyl cellulose (0.05%) and 10 mM citrate, pH 8.
The protease substrate, Azocoll, was obtained from Sigma Chemical Corporation and it is a substrate for collagenase/gelatinase-like metalloproteinase enzymes and general proteases. Clostridium histolyticum collagenase (the crude form of the enzyme) was from Worthington Biochemicals. General chemicals including TRIS buffer, DMSO, and CaCl2 were from Sigma Chemical Corporation.
(§5) Briefly, 900 μl of the Azocoll substrate suspension in buffer ([…] in 50 mM TRIS, pH 7.8, 1 mM CaCl2) was added to 1.5 ml microcentrifuge tubes then 50 μl of inhibitor (or buffer) and 50 μl of chronic wound fluid (or collagenase standard) were added to the reaction tube. The reaction tubes were placed at 37° C. in a shaker that inverted the tubes 30 times per minute. After 24 hours of incubation, the reaction tubes were centrifuges at 10,000 X g and the absorbance of the supernatant solution was measured at 520 nm with a Milton-Roy spectrophotometer. Proteolysis of Azocoll substrate generates soluble colored fragments from the insoluble Azocoll substrate. Wound fluid samples were incubated alone or with the inhibitors. Controls included incubation of the Azocoll substrate with the assay buffer to measure spontaneous degradation of the substrate. A standard curve for digestion of the Azocoll substrate was generated by incubation of the Azocoll with crude bacterial collagenase. Protease levels were expressed as net μg of collagenase equivalent per ml of chronic wound fluid. In the figures, certain of the wound fluids are referred to by an individual name.
For these experiments, due to the different solubility properties of the inhibitors, different techniques were utilized. […] S1209 was dissolved in 1% DMSO then dissolved in 10 mM citrate, pH 5.5, containing 0.05% methyl cellulose. 39A was dissolved in propylene glycol (to give a final concentration of 2.4%) then dissolved in 1 mM CaCl2, […] Tris-Cl, pH 7.8. 21A was dissolved in propylene glycol (2.4%) methyl cellulose (0.05%) and 10 mM citrate, pH 8.

[8] = tested on: protease activity in open and chronic wound fluids; assay: Azocoll assay of protease activity in open and chronic wound fluids; type: biochemical, human; conditions: for inhibition of Azocoll-degrading proteases in wound fluids: FIG. 6; for effect on proteolytic activity of open and chronic wound fluids: FIG. 5
Description: as §1, §2, §3, §4
These inhibitors were compared to certain other inhibitors and these were UL001 [HSCH2 CH(CH2 CH(CH3)2)CO--Phe--Ala--NH2 ] obtained from Peptides International and MP506, obtained from Elastin Products. EDTA (ethylenediamine tetraacetic acid) and PMSF (phenylmethylsulfonyl fluoride) were also studied.
as §5

[9] = tested on: angiogenesis; conditions: cited from earlier work

Ki [2] [nM]	Ki [3] [nM]	Ki [4] [nM]	Ki [5] [nM]	Ki [6] [nM]	Structure (SMILES)	further results
0.37	1.29	40	0.62		CCCCCCCCCCCCNC(=O)[C@H](Cc1c[nH]c2ccccc12)NC(=O)C(CC(=O)NO)CC(C)C (single isomer, unassigned) [Compound 19A, N-[2-isobutyl-3-(N'-hydroxyamidocarbonyl)-propanoyl]-L-tryptophan dodecylamide]	Ki [1]: 300 nM
2.9		94	21	0.1	CC(C)CC(CC(=O)NO)C(=O)N[C@@H](Cc1c[nH]c2ccccc12)C(=O)NCCCCCCNC(=O)OCc1ccccc1 (stereo partly drawn) [Compound 27A, N-[L-2-isobutyl-3-(N'-hydroxyamidocarbonyl)-propanoyl]-L-tryptophan(6-phenyl-methoxycarbonyl-1-aminohexyl)amide]	Ki [1]: 13 nM
4		78	1	0.1	CC(C)CC(CC(=O)NO)C(=O)N[C@@H](Cc1c[nH]c2ccccc12)C(=O)NC1CCCCC1 (stereo partly drawn) [Compound 28A, N-[L-2-Isobutyl-3-(N'-hydroxyamidocarbonyl)-propanoyl]-L-tryptophan cyclohexylamide]	Ki [1]: 50 nM
145	65	19300	32		CC(C)C[C@H](CC(=O)O)C(=O)N[C@@H](Cc1c[nH]c2ccccc12)C(=O)NCCCN1CCOCC1 [Compound 48]	
0.81	0.97	57	0.19	0.6	CC(C)C[C@H](CC(=O)NO)C(=O)N[C@@H](Cc1c[nH]c2ccccc12)C(=O)NCCN1CCOCC1 [Compound 52, N-[2-Isobutyl-3-(N'-hydroxyamidocarbonyl)-propanoyl]-L-tryptophan-3(4-morpholinyl)-n-ethylamide]	
57	37	5140	20	2.2	CC(C)C[C@H](CC(=O)O)C(=O)N[C@@H](Cc1c[nH]c2ccccc12)C(=O)NCc1ccccc1 [Compound 57, N-[2-Isobutyl-3-hydroxycarbonylpropanoyl]-L-tryptophan-benzylamide]	
> 10000	> 10000	> 10000	> 10000	2000	C[C@H](NC(=O)[C@H](Cc1c[nH]c2ccccc12)NC(=O)[C@@H](CCC(=O)O)NC(=O)OC(C)(C)C)c1ccccc1 [Compound 78]	
> 10000	21100	> 10000	> 10000	60	C[C@H](NC(=O)[C@H](Cc1c[nH]c2ccccc12)NC(=O)[C@@H](CCC(=O)NO)NC(=O)OC(C)(C)C)c1ccccc1 [Compound 79, Boc-D-gamma-Hydroxamidoglutamyl-L-tryptophan-(S)-methylbenzylamide]	
> 10000	> 10000	> 10000	> 10000	500	C[C@H](NC(=O)[C@H](Cc1c[nH]c2ccccc12)NC(=O)[C@@H](CC(=O)O)NC(=O)OC(C)(C)C)c1ccccc1 [Compound 81]	
9260	3580	> 10000	3260	80	C[C@H](NC(=O)[C@H](Cc1c[nH]c2ccccc12)NC(=O)[C@@H](CC(=O)NO)NC(=O)OC(C)(C)C)c1ccccc1 [Compound 82, Boc-D-beta-hydroxamidoaspartyl-1 -tryptophan-(S)-methylbenzylamide]	
					CNC(=O)C(Cc1ccc(OC)cc1)NC(=O)C(CC(=O)NO)CC(C)C (stereo not drawn) [Compound S1209]	inhibition of protease activity of chronic wound fluid ([7]; FIG. 7, highest concentration (800 μg/ml)): 70%; inhibition of Azocoll-degrading proteases in wound fluids [8]: very effectively; also recorded: very effective inhibitors
					O=C(O)CN(CCN(CC(=O)O)CC(=O)O)CC(=O)O [EDTA, ethylenediamine tetraacetic acid, reference compound]	effective concentrations (order of magnitude) ([7]; FIG. 4): mM; inhibition of protease activity of a chronic wound fluid ([7]; FIG. 4): effectively inhibited; reduction of protease activity ([7]; FIG. 4, EDTA at mM concentrations): approximately 96%; effect on proteolytic activity of open and chronic wound fluids [8]: very effective inhibitors; inhibition of Azocoll-degrading proteases in wound fluids [8]: very effectively; reduction of proteolytic activity in open or chronic wound fluids ([8]; fluids with high levels of Azocoll-degrading protease activity): 95%
					O=S(=O)(F)Cc1ccccc1 [PMSF, phenylmethylsulfonyl fluoride, reference compound]	inhibition of protease activity of a chronic wound fluid ([7]; FIG. 4): not an effective inhibitor except at the highest concentration; reduction of proteolytic activity ([7]; FIG. 4, 500 μM): approximately 65%; effect on levels of protease activity at lower concentrations ([7]; FIG. 4, PMSF 500 μM and 50 μM): slightly increase the levels of protease activity; effect on proteolytic activity of open and chronic wound fluids [8]: did not significantly reduce the proteolytic activity; also recorded: did not reduce the levels of proteolytic activity
					CC(C)CC(CS)C(=O)N[C@@H](Cc1ccccc1)C(=O)N[C@@H](C)C(N)=O (stereo partly drawn) [UL001]	inhibition of Azocoll-degrading proteases in wound fluids [8]: very effectively
					CCCCC[C@H](CC(=O)NO)C(=O)N[C@H](C(=O)N1CCC[C@H]1CO)C(C)C [actinonin]	activity as an angiogenesis inhibitor [9]: angiogenesis inhibitor
